Here are results for 15 compounds from patent US20130269064A1, “INSECTICIDAL COMPOUNDS” (SYNGENTA PARTICIPATIONS AG, priority 2010, published 2013).

Where only a bound is given, the exact number is not on record here.

One may read the pest or weed control as the degree to which the test organism was suppressed or injured, in per cent.

In the first assay the test system is Spodoptera littoralis. As to the kind of experiment: Spodoptera littoralis (Egyptian cotton leafworm) cotton leaf disc test. As to conditions: foliar, 72 h, 200 ppm sprayed on cotton leaf discs, 5 L1 larvae, mortality, feeding behaviour, growth regulation 3 DAT. The format is in vivo. The source says:
Spodoptera littoralis (Egyptian Cotton Leafworm): Cotton leaf discs were placed on agar in a 24-well microtiter plate and sprayed with test solutions at an application rate of 200 ppm. After drying, the leaf discs were infested with 5 L1 larvae. The samples were checked for mortality, feeding behaviour, and growth regulation 3 days after treatment (DAT).
With `Cn1nc(C(F)(F)C(F)(F)F)c(C(F)(F)F)c1NC(=O)c1cccc(NC(=O)c2cccc(F)c2F)c1F` [Compound B21], the pest or weed control at 200 ppm is ≥ 80%.
As to `Cn1nc(C(F)(F)C(F)(F)F)c(C(F)(F)F)c1NC(=O)c1ccc(Cl)c(NC(=O)c2ccc(F)cc2)c1` [Compound E17], the pest or weed control at 200 ppm is ≥ 80%.
In the case of `Cn1nc(C(F)(F)C(F)(F)F)c(C(F)(F)F)c1NC(=O)c1cccc(NC(=O)c2ccc(F)cc2F)c1F` [Compound B22], the pest or weed control at 200 ppm was ≥ 80%.
Turning to `Cn1nc(C(F)(F)C(F)(F)F)c(C(F)(F)F)c1NC(=O)c1cccc(NC(=O)c2ccccc2F)c1F` [Compound B1], the pest or weed control at 200 ppm is ≥ 80%.
On the same count and under the same terms, in the case of `Cn1nc(C(F)(F)C(F)(F)F)c(C(F)(F)F)c1NC(=O)c1cccc(NC(=O)c2ccc(F)cc2)c1F` [Compound B17] it was ≥ 80%; in that of `Cc1cc(C#N)ccc1C(=O)Nc1cccc(C(=O)Nc2c(C(F)(F)F)c(C(F)(F)C(F)(F)F)nn2C)c1` [Compound D24], ≥ 80%.
In the case of `Cc1cc(F)ccc1C(=O)Nc1cccc(C(=O)Nc2c(C(F)(F)F)c(C(F)(F)C(F)(F)F)nn2C)c1` [Compound D7], the pest or weed control at 200 ppm was ≥ 80%.
For the compound `Cn1nc(C(F)(F)C(F)(F)F)c(C(F)(F)F)c1NC(=O)c1cccc(NC(=O)c2ccccc2C(F)(F)F)c1` [Compound D18], the pest or weed control at 200 ppm was ≥ 80%.
Same read-out and setting: with `Cc1cc(C#N)ccc1C(=O)Nc1cc(C(=O)Nc2c(C(F)(F)F)c(C(F)(F)C(F)(F)F)nn2C)ccc1Cl` [Compound E24] the figure was ≥ 80%; with `Cc1cc(C#N)ccc1C(=O)Nc1nc(C(=O)Nc2c(C(F)(F)F)c(C(F)(F)C(F)(F)F)nn2C)ccc1C#N` [Compound F1], ≥ 80%.
On the same count and under the same terms, in the case of `Cc1ccccc1C(=O)Nc1cc(C(=O)Nc2c(C(F)(F)F)c(C(F)(F)C(F)(F)F)nn2C)ccc1Cl` [Compound E2] it was ≥ 80%; in that of `Cn1nc(C(F)(F)C(F)(F)F)c(C(F)(F)F)c1NC(=O)c1cccc(NC(=O)c2ccccc2Cl)c1F` [Compound B3], ≥ 80%; in that of `Cn1nc(C(F)(F)C(F)(F)F)c(C(F)(F)F)c1NC(=O)c1ccc(Cl)c(NC(=O)c2ccccc2)c1` [Compound E16], ≥ 80%.
Still for that read-out and setting: in the case of `Cn1nc(C(F)(F)C(F)(F)F)c(C(F)(F)F)c1NC(=O)c1ccc(Cl)c(NC(=O)c2ccc(C#N)cc2)c1` [Compound E4] it was ≥ 80%; in that of `Cn1nc(C(F)(F)C(F)(F)F)c(C(F)(F)F)c1NC(=O)c1cccc(NC(=O)c2cc(C(F)(F)F)ccc2F)c1` [Compound D23], ≥ 80%.

The test system of the next assay is Diabrotica balteata. In words: Diabrotica balteata (corn root worm) artificial diet test. The format is in vivo. As to conditions: 120 h, 200 ppm (concentration in well 18 ppm), L2 larvae, 5 days, larval mortality and growth regulation. As for the experimental part: Diabrotica balteata (Corn Root Worm): A 24-well microtiter plate (MTP) with artificial diet was treated with test solutions at an application rate of 200 ppm (concentration in well 18 ppm) by pipetting. After drying, the MTP's were infested with larvae (L2) (6-10 per well). After an incubation period of 5 days, samples were checked for larval mortality, and growth regulation.
In the case of `Cn1nc(C(F)(F)C(F)(F)F)c(C(F)(F)F)c1NC(=O)c1cccc(NC(=O)c2cccc(F)c2F)c1F` [Compound B21], the pest or weed control at 200 ppm was ≥ 80%.
Turning to `Cn1nc(C(F)(F)C(F)(F)F)c(C(F)(F)F)c1NC(=O)c1ccc(Cl)c(NC(=O)c2ccc(F)cc2)c1` [Compound E17], the pest or weed control at 200 ppm is ≥ 80%.
Still for that read-out and setting: with `Cn1nc(C(F)(F)C(F)(F)F)c(C(F)(F)F)c1NC(=O)c1cccc(NC(=O)c2ccc(F)cc2F)c1F` [Compound B22] the figure was ≥ 80%; with `Cn1nc(C(F)(F)C(F)(F)F)c(C(F)(F)F)c1NC(=O)c1cccc(NC(=O)c2ccccc2F)c1F` [Compound B1], ≥ 80%.
The same measure, in the same setting: with `Cn1nc(C(F)(F)C(F)(F)F)c(C(F)(F)F)c1NC(=O)c1cccc(NC(=O)c2ccc(F)cc2)c1F` [Compound B17] the figure was ≥ 80%; with `Cc1cc(C#N)ccc1C(=O)Nc1cccc(C(=O)Nc2c(C(F)(F)F)c(C(F)(F)C(F)(F)F)nn2C)c1` [Compound D24], ≥ 80%; with `Cc1cc(F)ccc1C(=O)Nc1cccc(C(=O)Nc2c(C(F)(F)F)c(C(F)(F)C(F)(F)F)nn2C)c1` [Compound D7], ≥ 80%.
As to `Cn1nc(C(F)(F)C(F)(F)F)c(C(F)(F)F)c1NC(=O)c1cccc(NC(=O)c2ccccc2C(F)(F)F)c1` [Compound D18], the pest or weed control at 200 ppm is ≥ 80%.
The same measure, in the same setting: with `Cc1cc(C#N)ccc1C(=O)Nc1cc(C(=O)Nc2c(C(F)(F)F)c(C(F)(F)C(F)(F)F)nn2C)ccc1Cl` [Compound E24] the figure was ≥ 80%.
On the same count and under the same terms, in the case of `Cn1nc(C(F)(F)C(F)(F)F)c(C(F)(F)F)c1NC(=O)c1cccc(NC(=O)c2ccccc2Cl)c1F` [Compound B3] it was ≥ 80%.
On the same count and under the same terms, with `Cn1nc(C(F)(F)C(F)(F)F)c(C(F)(F)F)c1NC(=O)c1ccc(Cl)c(NC(=O)c2ccccc2)c1` [Compound E16] the figure was ≥ 80%; with `Cn1nc(C(F)(F)C(F)(F)F)c(C(F)(F)F)c1NC(=O)c1ccc(Cl)c(NC(=O)c2ccc(C#N)cc2)c1` [Compound E4], ≥ 80%.
As to `Cn1nc(C(F)(F)C(F)(F)F)c(C(F)(F)F)c1NC(=O)c1cccc(NC(=O)c2cc(C(F)(F)F)ccc2F)c1` [Compound D23], the pest or weed control at 200 ppm was ≥ 80%.

A further assay deals with Plutella xylostella. As to the kind of experiment: Plutella xylostella (diamond back moth) artificial diet test. To be noted: 144 h, 200 ppm (concentration in well 18 ppm), L2 larvae, 6 days, larval mortality and growth regulation. The format is in vivo. As for the experimental part:
Plutella xylostella (Diamond Back Moth): A 24-well microtiter plate (MTP) with artificial diet was treated with test solutions at an application rate of 200 ppm (concentration in well 18 ppm) by pipetting. After drying, the MTP's were infested with L2 larvae (7-12 per well). After an incubation period of 6 days, samples were checked for larval mortality and growth regulation.
Turning to `Cn1nc(C(F)(F)C(F)(F)F)c(C(F)(F)F)c1NC(=O)c1cccc(NC(=O)c2cccc(F)c2F)c1F` [Compound B21], the pest or weed control at 200 ppm was ≥ 80%.
The same measure, in the same setting: with `Cn1nc(C(F)(F)C(F)(F)F)c(C(F)(F)F)c1NC(=O)c1ccc(Cl)c(NC(=O)c2ccc(F)cc2)c1` [Compound E17] the figure was ≥ 80%; with `Cn1nc(C(F)(F)C(F)(F)F)c(C(F)(F)F)c1NC(=O)c1cccc(NC(=O)c2ccc(F)cc2F)c1F` [Compound B22], ≥ 80%; with `Cn1nc(C(F)(F)C(F)(F)F)c(C(F)(F)F)c1NC(=O)c1cccc(NC(=O)c2ccccc2F)c1F` [Compound B1], ≥ 80%.
On the same count and under the same terms, with `Cn1nc(C(F)(F)C(F)(F)F)c(C(F)(F)F)c1NC(=O)c1cccc(NC(=O)c2ccc(F)cc2)c1F` [Compound B17] the figure was ≥ 80%.
The same measure, in the same setting: in the case of `Cc1cc(C#N)ccc1C(=O)Nc1cccc(C(=O)Nc2c(C(F)(F)F)c(C(F)(F)C(F)(F)F)nn2C)c1` [Compound D24] it was ≥ 80%; in that of `Cc1cc(F)ccc1C(=O)Nc1cccc(C(=O)Nc2c(C(F)(F)F)c(C(F)(F)C(F)(F)F)nn2C)c1` [Compound D7], ≥ 80%; in that of `Cc1cc(C#N)ccc1C(=O)Nc1cc(C(=O)Nc2c(C(F)(F)F)c(C(F)(F)C(F)(F)F)nn2C)ccc1Cl` [Compound E24], ≥ 80%.
Consider `Cn1nc(C(F)(F)C(F)(F)F)c(C(F)(F)F)c1NC(=O)c1cccc(NC(=O)c2ccccc2Cl)c1F` [Compound B3], for which the pest or weed control at 200 ppm is ≥ 80%.
The same measure, in the same setting: with `Cn1nc(C(F)(F)C(F)(F)F)c(C(F)(F)F)c1NC(=O)c1ccc(Cl)c(NC(=O)c2ccccc2)c1` [Compound E16] the figure was ≥ 80%.
As to `Cn1nc(C(F)(F)C(F)(F)F)c(C(F)(F)F)c1NC(=O)c1ccc(Cl)c(NC(=O)c2ccc(C#N)cc2)c1` [Compound E4], the pest or weed control at 200 ppm is ≥ 80%.

Another assay has as its system Heliothis virescens. In words: Heliothis virescens (tobacco budworm) egg/artificial diet test. The format is in vivo. To be noted: 96 h, 200 ppm (concentration in well 18 ppm), eggs 0-24 h old on artificial diet, 4 days, egg mortality, larval mortality, growth regulation. As for the experimental part: Heliothis virescens (Tobacco Budworm): Eggs (0-24 h old) were placed in 24-well microtiter plate on artificial diet and treated with test solutions at an application rate of 200 ppm (concentration in well 18 ppm) by pipetting. After an incubation period of 4 days, samples were checked for egg mortality, larval mortality and growth regulation.
Regarding `Cn1nc(C(F)(F)C(F)(F)F)c(C(F)(F)F)c1NC(=O)c1cccc(NC(=O)c2cccc(F)c2F)c1F` [Compound B21], the pest or weed control at 200 ppm is ≥ 80%.
The same measure, in the same setting: with `Cn1nc(C(F)(F)C(F)(F)F)c(C(F)(F)F)c1NC(=O)c1ccc(Cl)c(NC(=O)c2ccc(F)cc2)c1` [Compound E17] the figure was ≥ 80%; with `Cn1nc(C(F)(F)C(F)(F)F)c(C(F)(F)F)c1NC(=O)c1cccc(NC(=O)c2ccc(F)cc2F)c1F` [Compound B22], ≥ 80%.
The same measure, in the same setting: in the case of `Cn1nc(C(F)(F)C(F)(F)F)c(C(F)(F)F)c1NC(=O)c1cccc(NC(=O)c2ccccc2F)c1F` [Compound B1] it was ≥ 80%.
Regarding `Cn1nc(C(F)(F)C(F)(F)F)c(C(F)(F)F)c1NC(=O)c1cccc(NC(=O)c2ccc(F)cc2)c1F` [Compound B17], the pest or weed control at 200 ppm was ≥ 80%.
Same read-out and setting: in the case of `Cc1cc(F)ccc1C(=O)Nc1cccc(C(=O)Nc2c(C(F)(F)F)c(C(F)(F)C(F)(F)F)nn2C)c1` [Compound D7] it was ≥ 80%; in that of `Cn1nc(C(F)(F)C(F)(F)F)c(C(F)(F)F)c1NC(=O)c1cccc(NC(=O)c2ccccc2C(F)(F)F)c1` [Compound D18], ≥ 80%.
The same measure, in the same setting: in the case of `Cc1cc(C#N)ccc1C(=O)Nc1cc(C(=O)Nc2c(C(F)(F)F)c(C(F)(F)C(F)(F)F)nn2C)ccc1Cl` [Compound E24] it was ≥ 80%.
The same measure, in the same setting: in the case of `Cn1nc(C(F)(F)C(F)(F)F)c(C(F)(F)F)c1NC(=O)c1cccc(NC(=O)c2ccccc2Cl)c1F` [Compound B3] it was ≥ 80%; in that of `Cn1nc(C(F)(F)C(F)(F)F)c(C(F)(F)F)c1NC(=O)c1ccc(Cl)c(NC(=O)c2ccccc2)c1` [Compound E16], ≥ 80%.
`Cn1nc(C(F)(F)C(F)(F)F)c(C(F)(F)F)c1NC(=O)c1ccc(Cl)c(NC(=O)c2ccc(C#N)cc2)c1` [Compound E4]: the pest or weed control at 200 ppm was ≥ 80%.
Same read-out and setting: in the case of `Cn1nc(C(F)(F)C(F)(F)F)c(C(F)(F)F)c1NC(=O)c1cccc(NC(=O)c2cc(C(F)(F)F)ccc2F)c1` [Compound D23] it was ≥ 80%.

The subject of a further assay is Tetranychus urticae. As to the kind of experiment: Tetranychus urticae (two-spotted spider mite) bean leaf disc test. It counts as in vivo. As to conditions: foliar, 192 h, 200 ppm sprayed on bean leaf discs, mixed ages, 8 days, egg, larval and adult mortality. From the text: Tetranychus urticae (Two-Spotted Spider Mite): Bean leaf discs on agar in 24-well microtiter plates were sprayed with test solutions at an application rate of 200 ppm. After drying, the leaf discs are infested with mite populations of mixed ages. 8 days later, discs are checked for egg mortality, larval mortality, and adult mortality.
With `Cn1nc(C(F)(F)C(F)(F)F)c(C(F)(F)F)c1NC(=O)c1cccc(NC(=O)c2ccc(F)cc2)c1F` [Compound B17], the pest or weed control at 200 ppm is ≥ 80%.
On the same count and under the same terms, with `Cc1cc(C#N)ccc1C(=O)Nc1cccc(C(=O)Nc2c(C(F)(F)F)c(C(F)(F)C(F)(F)F)nn2C)c1` [Compound D24] the figure was ≥ 80%.
The same measure, in the same setting: in the case of `Cc1cc(F)ccc1C(=O)Nc1cccc(C(=O)Nc2c(C(F)(F)F)c(C(F)(F)C(F)(F)F)nn2C)c1` [Compound D7] it was ≥ 80%; in that of `Cc1cc(C#N)ccc1C(=O)Nc1cc(C(=O)Nc2c(C(F)(F)F)c(C(F)(F)C(F)(F)F)nn2C)ccc1Cl` [Compound E24], ≥ 80%.
